The values below come from patent US12478693B2, “Compositions and methods for detection of traumatic brain injury” (Amydis, Inc., priority 2018, dated 2025).

Entries after “also recorded” stand apart in the source; their conditions may differ.

What all share (type): binding
In experiment [1] the test system is amyloid-beta (Aβ) deposits in human retinal tissue. The experiment can be described thus: Ex vivo fluorescence staining of post-mortem human retina with ASF probe. The following applies: AD and cognitively normal patients, listed as ASF. The method, then:
Post-mortem retinal tissue and brains of humans with confirmed or probable Alzheimer's disease (AD) were obtained and examined by staining amyloid-beta (A3) with a test amyloid sensitive fluorescent probe (ASF), Compound 1. This example was conducted to determine if the ASF could identify patients with amyloid burden in the brain through fluorescence inspection of retinas stained with the ASF.
While this example could observe these deposits in both AD (panels A-B) and cognitively normal patients (panels C-D), there is a qualitative correlation between the density of these deposits in the retina and the degree of amyloidosis in the brain (as estimated by immunohistochemistry (IHC) with anti-Aβ antibodies).
IHC staining of retinal cryosections provided further evidence for the existence of Aβ in retinal deposits with similar location, size, and morphology as the deposits found in retinal flat mounts stained with the ASF.

For experiment [2], the system named is amyloid beta in retinal tissue. The experiment can be described thus: Staining of retinal tissue of TBI blast mouse model. The following applies: for fluorescent labelling of retinal Aβ deposits: blast mouse model, 24 hours after injury; for fluorescent labelling of retinal tissue: non-injured (normal) mouse. How it is done: This example was conducted to determine whether the ASF Compound 1 could detect AR in the retina of a TBI mouse model after injury.
Retinal tissue of a blast mouse model 24 hours after injury and a non-injured mouse were stained with the ASF and co-stained with an […] (6E10).

The subject of experiment [3] is amyloid beta in brain tissue. Kind of experiment: Staining of brain tissue of TBI blast mouse model. The source says:
Based on this evidence, this example further attempted to confirm that […] was also detected in the brain tissue of the same TBI blast mouse model. […] The evidence of Aβ in the brain tissue complements what was found in the retinal tissue of the same injured mouse. It also supports previous studies of the correlation between the brain and retina in the accumulation of Aβ.

Experiment [4] relates to aggregated proteins in retina. The experiment can be described thus: Retina staining after controlled cortical impact (Example 3). The following applies: 3 month old C5BL/6 mice, 24 h after CCI. The text has this:
3 month old C5BL/6 mice were briefly anesthetized with isoflurane and placed in a stereotaxic frame. Mice were subjected to craniotomy over the right primary and secondary motor cortex and parietal-temporal cortex (+1 to −4 anterior-posterior from the bregma, 4 mm laterally from the sagittal suture). Half of the mice were not further injured to use as control specimen. For the remaining mice a 3 mm diameter piston was centered over the motor cortex approximately +0.5 to −2.5 mm from the bregma and 3 mm lateral to the sagittal suture. Using a stereotaxic impactor (Impact One, myNeuroLab.com), the piston was accelerated at a speed of 3 m/sec to an impact depth of 1 mm below the cortical surface. After 24 h, mice were euthanized and brain and eyes were collected. Retinas were extracted, stained with DAPI, Compound 1, and 6E10 antibody, and compared.
Retinas were mounted on slides and washed with phosphate-buffered saline (PBS) two times for five minutes each time. Retinas were exposed to 98% formic acid for one minute then washed two times with distilled water for five minutes each time. The retinas were then equilibrated in 1×PBS for 15 minutes. Retinas were exposed to 10% goat/donkey serum in 1× phosphate-buffered saline with Tween® 20 (PBST) for 1 h. Retinas were then incubated with […] in 10% goat serum in 1×PBST at 4° C. overnight. […]

In another experiment the target is T1, Aβ deposits in retina (Mus musculus, UniProt P12023).
T1 construct: denotes peptides of about 36 to 43 amino acids; from tissue; host or cells: mouse retina dissected 24 h after CCI
The experiment can be described thus: Ex vivo detection of retinal Aβ aggregation in CCI mouse model (Example 4). How it is done:
Mice were subjected to a controlled cortical impact (CCI). The CCI model applies a controlled impact to the intact dura after a craniotomy and is a commonly used TBI animal model. Mice were anesthetized, the head was mounted in a stereotaxic frame, and a craniotomy was performed over the right side of the frontal cortex. Using a stereotaxic impactor, mice received an impact on the right side of the frontal cortex using a 3 m/s velocity, 1 mm depth, and 3 mm diameter piston. After injury, the incision was closed with staples, anesthesia was terminated, and the animal was placed in a heated cage to maintain normal core temperature.
Sham injury consisted of exposure to anesthesia, stereotaxic mounting, skin and fascia reflection, and closing of incision with staples. Mice were then euthanized 24 hours after injury and retinal tissue were dissected for further analysis.
Retina from mice were extracted and stained with Compound 1 along with a 6E10 antibody, a sequence specific antibody for Aβ.
Mice were subjected to a controlled cortical impact (CCI). The CCI model applies a controlled impact to the intact dura after a craniotomy and is a commonly used TBI animal model. Mice were anesthetized, the head was mounted in a stereotaxic frame, and a craniotomy was performed over the right side of the frontal cortex. […]

T1 sequence (P12023 672-713 limits assumed): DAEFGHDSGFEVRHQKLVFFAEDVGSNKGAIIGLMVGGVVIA

Turning to `COCCOCCOCCNC(=O)/C(C#N)=C/c1ccc2cc(N3CCCCC3)ccc2c1` [Compound 1, (E)-2-cyano-N-(2-(2-(2-methoxyethoxy)ethoxy)ethyl)-3-(6-(piperidin-1l-yl)naphthalen-2-yl)acrylamide], the “fluorescent visualization / binding of amyloid deposits in flat mounted retina” value in experiment [1] is “dense deposits that were 5-10 μm in diameter could be fluorescently visualized; also recorded: capable of binding to amyloid deposits in ex vivo human retinal tissue”. Also, the “fluorescent labelling of retinal Aβ deposits” value in experiment [2] is “fluoresces amyloid beta in retinal tissue of TBI blast mouse model; also recorded: has the ability to detect retinal amyloids present in a TBI mouse model”; in experiment [2] (listed as ASF), “fluorescently labels these retinal deposits”; on Aβ deposits in retina (mice that received a CCI, 24 hours after injury, retina ex vivo), “fluorescently labeled these deposits and co-localized with 6E10 immunoreactivity”. Further, the “fluorescent labelling of retinal tissue” value in experiment [2] is “No visible fluorescence in normal mouse”; in experiment [2] (listed as ASF), “does not display any fluorescent enhancement”. For the same molecule, in experiment [3] (TBI blast mouse model), the “fluorescent labelling of amyloid beta in brain tissue” value is on record as “fluoresces amyloid beta in brain tissue of TBI blast mouse model”. For the same molecule, the “fluorescent labelling of brain tissue” value in experiment [3] (normal mouse) was “No visible fluorescence in normal mouse”. Further, the “detection of deposited aggregated proteins in retina” value in experiment [4] is “detected; also recorded: colocalized”. On Aβ deposits in retina (uninjured (sham) mouse), the “fluorescence enhancement in retina” value was “did not display any fluorescence enhancement”.
